The source made the active and inactive calls. The rule behind the calls is not given here.
System: Human immunodeficiency virus 1
Experiment: Tested for activity against HIV in cell culture at concentration of 100 ug/mL; NA denotes no activity
Type: functional, organism-based

SMILES: Cc1cn(N2CC(F)C(CO)C2)c(=O)[nH]c1=O (stereo not drawn)
- Activity: inactive

SMILES: Cc1cn(N2CC(O)C(CO)C2)c(=O)[nH]c1=O (stereo not drawn)
- Activity: inactive

SMILES: Cc1cn(N2CC(CO)C(N=[N+]=[N-])C2)c(=O)[nH]c1=O (stereo not drawn)
- Activity: inactive

From ChEMBL document CHEMBL1125990, “Synthesis of novel 1-nitrogen replaced carbocyclic thymidine analogs as potential anti aids agents” (Bioorg Med Chem Lett, 1991)
